“And” between values parts separate entries of the source, which are not always exact repeats. Equal entries are not always repeated.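 All cell lines were grown in 96-well plates and treated with compound for 48 hours. At the GI50, growth is halved. Definition used: TGI = concentration required for complete inhibition of growth.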
Tests used:
Experiment in all cases: growth of human tumour cells (NCI), 48 h
ACHN renal = system: ACHN renal
COLO 205 colon = system: COLO 205 colon
MALME-3M melanoma = system: MALME-3M melanoma
OVCAR-4 ovarian = system: OVCAR-4 ovarian
SF-295 CNS = system: SF-295 CNS
SF-539 CNS = system: SF-539 CNS
TK-10 renal = system: TK-10 renal
UACC-257 melanoma = system: UACC-257 melanoma

In the case of `NC(=O)C(=O)Cc1nc2ccccc2s1`, the TGI (ACHN renal) is reported as > 100 µM, the TGI (COLO 205 colon) is reported as > 100 µM and the TGI (MALME-3M melanoma) is reported as > 100 µM. For the same compound, the TGI (OVCAR-4 ovarian) was > 100 µM, the TGI (SF-295 CNS) was > 100 µM and the TGI (SF-539 CNS) was > 100 µM. The TGI (TK-10 renal) was > 100 µM and the TGI (UACC-257 melanoma) was > 100 µM.

With `Nc1c(-c2nc3ccccc3s2)[n+]([O-])c2ccccc2[n+]1[O-]` the TGI (ACHN renal) was 78 µM, the TGI (COLO 205 colon) was > 100 µM and the TGI (MALME-3M melanoma) was 91.7 µM. The TGI (OVCAR-4 ovarian) was > 100 µM, the TGI (SF-295 CNS) was 72.5 µM and the TGI (SF-539 CNS) was 78.8 µM. The TGI (TK-10 renal) was > 100 µM and the TGI (UACC-257 melanoma) was > 100 µM.

With `CC1(C)CC(O)CC(C)(C)N1.CC1(C)CC(O)CC(C)(C)N1.CC1(C)CC(O)CC(C)(C)N1.CC1(C)CC(O)CC(C)(C)N1.Cl.[Ti]` the GI50 (ACHN renal) was > 100 µM, the TGI (ACHN renal) was > 100 µM and the GI50 (COLO 205 colon) was > 100 µM. For the same compound, the TGI (COLO 205 colon) was > 100 µM, the GI50 (OVCAR-4 ovarian) was > 100 µM and the TGI (OVCAR-4 ovarian) was > 100 µM. For the same compound, the GI50 (SF-295 CNS) was > 100 µM, the TGI (SF-295 CNS) was > 100 µM and the GI50 (SF-539 CNS) was > 100 µM. For the same compound, the TGI (SF-539 CNS) was > 100 µM, the GI50 (TK-10 renal) was > 100 µM and the TGI (TK-10 renal) was > 100 µM. The GI50 (UACC-257 melanoma) was > 100 µM and the TGI (UACC-257 melanoma) was > 100 µM.

For `O=C(O)C1=C(C(=O)O)Oc2ccccc2O1`, the TGI (ACHN renal) was > 100 µM, the TGI (COLO 205 colon) was > 100 µM and the TGI (MALME-3M melanoma) was > 100 µM. For the same compound, the TGI (OVCAR-4 ovarian) was > 100 µM, the TGI (SF-295 CNS) was > 100 µM and the TGI (SF-539 CNS) was > 100 µM. The TGI (TK-10 renal) was > 100 µM and the TGI (UACC-257 melanoma) was > 100 µM.

In the case of `CCOC(=O)COc1cccc2occc(=O)c12`, the TGI (ACHN renal) is reported as > 100 µM, the TGI (COLO 205 colon) is reported as > 100 µM and the TGI (MALME-3M melanoma) is reported as > 100 µM. For the same compound, the TGI (OVCAR-4 ovarian) was > 100 µM, the TGI (SF-295 CNS) was > 100 µM and the TGI (SF-539 CNS) was > 100 µM. For the same compound, the TGI (TK-10 renal) was > 100 µM and the TGI (UACC-257 melanoma) was > 100 µM.

For `CC(C)(C)c1cc(C(OCCl)(C(F)(F)F)C(F)(F)F)c2c(c1)C(C(F)(F)F)(C(F)(F)F)OC21c2ccccc2C(=O)c2ccccc21`, the TGI (ACHN renal) was > 100 µM, the TGI (COLO 205 colon) was > 100 µM and the TGI (MALME-3M melanoma) was > 100 µM. For the same compound, the TGI (OVCAR-4 ovarian) was > 100 µM, the TGI (SF-295 CNS) was > 100 µM and the TGI (SF-539 CNS) was > 100 µM. For the same compound, the TGI (TK-10 renal) was > 100 µM and the TGI (UACC-257 melanoma) was > 100 µM.

For `Nc1ncnc2sc(Nc3ccccc3)nc12`, the TGI (ACHN renal) was > 100 µM, the TGI (COLO 205 colon) was > 100 µM and the TGI (MALME-3M melanoma) was > 100 µM. The TGI (OVCAR-4 ovarian) was > 100 µM, the TGI (SF-295 CNS) was > 100 µM and the TGI (SF-539 CNS) was > 100 µM. The TGI (TK-10 renal) was > 100 µM and the TGI (UACC-257 melanoma) was > 100 µM.

`O=C1c2ccoc2C(=O)c2oc(=O)ccc21` was tested, and the TGI (ACHN renal) was 8.43 µM, the TGI (COLO 205 colon) was > 55.4 µM and the TGI (MALME-3M melanoma) was 7.84 µM. For the same compound, the TGI (OVCAR-4 ovarian) was 13.5 µM, the TGI (SF-295 CNS) was 31.5 µM and the TGI (SF-539 CNS) was 8.31 µM. For the same compound, the TGI (TK-10 renal) was > 59.1 µM and the TGI (UACC-257 melanoma) was 20.8 µM.

With `NNC(=O)N/N=C1\CNC(=O)C(=O)C1c1nc2ccccc2s1` (stereo not given) the TGI (ACHN renal) was > 100 µM, the TGI (COLO 205 colon) was > 100 µM and the TGI (MALME-3M melanoma) was > 100 µM. The TGI (OVCAR-4 ovarian) was > 100 µM, the TGI (SF-295 CNS) was > 100 µM and the TGI (SF-539 CNS) was > 100 µM. For the same compound, the TGI (TK-10 renal) was > 100 µM and the TGI (UACC-257 melanoma) was > 100 µM.

With `O=S(=O)(Cc1ccccc1)SCc1ccccc1` the TGI (ACHN renal) was > 100 µM, the TGI (COLO 205 colon) was 34.3 µM and the TGI (MALME-3M melanoma) was 73.6 µM. The TGI (OVCAR-4 ovarian) was 54 µM, the TGI (SF-295 CNS) was 65.7 µM and the TGI (SF-539 CNS) was 37.8 µM. It also gave a TGI (TK-10 renal) of 99.2 µM and a TGI (UACC-257 melanoma) of 76 µM.

For `O=C(CCC(=O)C1Cc2ccccc2C1=O)Nc1cccc(C(F)(F)F)c1` (stereo not given), the TGI (ACHN renal) was > 100 µM, the TGI (COLO 205 colon) was > 100 µM and the TGI (MALME-3M melanoma) was > 100 µM. For the same compound, the TGI (OVCAR-4 ovarian) was > 100 µM, the TGI (SF-295 CNS) was > 100 µM and the TGI (SF-539 CNS) was > 100 µM. For the same compound, the TGI (TK-10 renal) was > 100 µM and the TGI (UACC-257 melanoma) was > 100 µM.

For `O=c1c2cccc3cccc(c4n1CCCN=4)c32`, the TGI (ACHN renal) was > 100 µM, the TGI (COLO 205 colon) was > 100 µM and the TGI (MALME-3M melanoma) was > 100 µM. The TGI (OVCAR-4 ovarian) was > 100 µM, the TGI (SF-295 CNS) was > 100 µM and the TGI (SF-539 CNS) was > 100 µM. The TGI (TK-10 renal) was > 100 µM and the TGI (UACC-257 melanoma) was > 100 µM.

`COc1ccc2c3c(c(C(=O)O)oc13)C(CCC(=O)O)CC2` (stereo not given) was tested, and the TGI (ACHN renal) was > 100 µM, the TGI (COLO 205 colon) was > 100 µM and the TGI (OVCAR-4 ovarian) was > 100 µM. For the same compound, the TGI (SF-295 CNS) was > 100 µM, the TGI (SF-539 CNS) was > 100 µM and the TGI (TK-10 renal) was > 100 µM. The TGI (UACC-257 melanoma) was > 100 µM.

In the case of `C1=C(c2ccccc2)C(OC2Oc3ccccc3C=C2c2ccccc2)Oc2ccccc21` (stereo not given), the TGI (ACHN renal) is reported as > 100 µM, the TGI (COLO 205 colon) is reported as > 100 µM and the TGI (MALME-3M melanoma) is reported as > 100 µM. For the same compound, the TGI (SF-295 CNS) was > 100 µM, the TGI (TK-10 renal) was > 100 µM and the TGI (UACC-257 melanoma) was > 100 µM.

With `Cc1csc(CCC(N)C(=O)O)n1` (stereo not given) the TGI (ACHN renal) was > 100 µM, the TGI (COLO 205 colon) was > 100 µM and the TGI (MALME-3M melanoma) was > 100 µM. For the same compound, the TGI (SF-295 CNS) was > 100 µM, the TGI (SF-539 CNS) was > 100 µM and the TGI (TK-10 renal) was > 100 µM. The TGI (UACC-257 melanoma) was > 100 µM.

With `CC(=O)c1c(O)c2c([nH]c1=O)CCCC2` the TGI (ACHN renal) was > 100 µM, the TGI (COLO 205 colon) was > 100 µM and the TGI (MALME-3M melanoma) was > 100 µM. The TGI (OVCAR-4 ovarian) was > 100 µM, the TGI (SF-295 CNS) was 39.7 µM and the TGI (TK-10 renal) was > 100 µM.

`CC1CCC2c3c([nH]c4ccccc34)C3C(=O)N(c4ccccc4)C(=O)C3C2C1` (stereo not given) was tested, and the GI50 (ACHN renal) was 47.9 µM, the TGI (ACHN renal) was 224 µM and the TGI (MALME-3M melanoma) was 215 µM. The TGI (OVCAR-4 ovarian) was > 250 µM, the GI50 (SF-295 CNS) was 66.3 µM and the TGI (SF-295 CNS) was > 250 µM. The GI50 (SF-539 CNS) was 34 µM, the TGI (SF-539 CNS) was 27.6 µM and > 250 µM and the GI50 (TK-10 renal) was 45.5 µM. For the same compound, the TGI (TK-10 renal) was 67.5 µM and 181 µM and the TGI (UACC-257 melanoma) was > 250 µM.

In the case of `CCOc1ccc(/C=C2/C(=O)N=C(N)N=C2N)cc1OCC`, the TGI (ACHN renal) is reported as > 100 µM, the TGI (COLO 205 colon) is reported as > 100 µM and the TGI (MALME-3M melanoma) is reported as > 100 µM. The TGI (OVCAR-4 ovarian) was > 100 µM, the TGI (SF-295 CNS) was > 100 µM and the TGI (TK-10 renal) was > 100 µM. For the same compound, the TGI (UACC-257 melanoma) was > 100 µM.

Work on `C=C(C)[C@@H]1CC[C@]2(C(=O)n3ccnc3)CC[C@]3(C)[C@H](CC[C@@H]4[C@@]5(C)CCCNC(C)(C)[C@@H]5CC[C@]43C)[C@@H]12` yielded a GI50 (COLO 205 colon) of 1.52 µM, a TGI (COLO 205 colon) of 3.25 µM and a GI50 (MALME-3M melanoma) of 1.31 µM. It also gave a TGI (MALME-3M melanoma) of 2.86 µM, a GI50 (SF-295 CNS) of 1.69 µM and a TGI (SF-295 CNS) of 3.24 µM. For the same compound, the GI50 (SF-539 CNS) was 1.58 µM, the TGI (SF-539 CNS) was 3.03 µM and the GI50 (TK-10 renal) was 2.58 µM. For the same compound, the TGI (TK-10 renal) was 6.82 µM, the GI50 (UACC-257 melanoma) was 2.02 µM and the TGI (UACC-257 melanoma) was 4.09 µM.

With `Nc1c(C(=O)Nc2ccccc2O)[n+]([O-])c2ccccc2[n+]1[O-]` the TGI (ACHN renal) was > 100 µM, the TGI (COLO 205 colon) was > 100 µM and the TGI (MALME-3M melanoma) was > 100 µM. The TGI (OVCAR-4 ovarian) was > 100 µM, the TGI (SF-295 CNS) was > 100 µM and the TGI (SF-539 CNS) was > 100 µM. The TGI (UACC-257 melanoma) was 44.6 µM.
